Key:
[1] = target: T1, complex between EGF and sEGFR-MMB (Homo sapiens, UniProt P00533); assay: Phage ELISA binding studies on P190, receptor with added EGF; settings: Table 10; listed as pIX-190
T1 construct: made in house
Experimental: The plates were held overnight at room temperature, washed twice with TBST (0.5M Tris Base, 9% NaCl, 0.05% tween, pH 7.6), and loaded with 200 μL per well of Starting Block (Pierce). […] The plates were held at room temperature for 1.5 hours for blocking. Plates were then washed twice with TBST and phage were added. The phage solutions were crude phage supernatant from overnight cultures diluted four-fold with Starting Block. After a one-hour incubation, the plates were washed thrice with TBST and 100 μL of a 1:5000 dilution of phage binding antibody conjugate (α-M13-HRP) was added to the wells. EGF was added if applicable. After a one-hour incubation the plates were washed five times with TBST, 100 μL of POD (BM Chemiluminescence ELISA substrate; Roche Applied Science) was added, and chemiluminescence recorded.

[2] = system: A431 cells; assay: Flow cytometry of phage binding to tumor cells; type: cell-based, human
Experimental: (§1) Flow cytometry. To evaluate whether the selected peptides from phage display can bind to tumor cells that overexpress EGFR, A431 cells (epidermoid cancer) or an EGFR negative tumor cells, MCF-7 (breast carcinoma) were tested in a flow cytometry assay using fluorescence detection (FACS). For P145, PP146 and their control phage, 2.5×10^5 A431 cells were resuspended in 25 μl of flow staining buffer (dPBS with 1% BSA, 0.09% sodium azide) and incubated with 25 μl of phage clones for 1 hour at 4° C. […] Cells were washed two times with flow staining buffer and then incubated with 0.5 μg of mouse anti M13/fd/F1 filamentous phages monoclonal antibody conjugated to FITC (Fitzgerald Industries International, Inc. Concord, Mass.) for 45 minutes at 4° C. Cells were washed two times with flow staining buffer and acquired by FACSCalibur (BD, Franklin Lakes, N.J.) to detect bound phages on tumor cell surface. Results.
(§2) A431 cells (epidermoid cancer) which overexpress EGFR and EGFR-negative tumor cells, MCF-7 (breast carcinoma) were tested in a flow cytometry assay. Tumor cells (A431 and MCF-7) were harvested with 0.25% tyrpsin-EDTA and washed twice with FACS staining buffer (dPBS with 1% BSA, 0.09% sodium azide). […] After binding at 4° C., cells were washed twice with FACS staining buffer to remove unbound phage and then incubated with 0.5 μg of mouse anti-M13 monoclonal antibody conjugated to FITC (Fitzgerald Industries International, Inc. Concord, Mass.) for 1 hour at 4° C. Mouse anti-M13-FITC incubated with cells without phage was used as background binding. Cells were washed twice with FACS staining buffer to remove unbound detection antibody.

[3] = system: MCF-7; assay: Flow cytometry of phage binding to EGFR negative tumor cells; type: cell-based, human; settings: EGFR positive versus EGFR negative cells
Experimental: as §1, §2

[4] = system: A431 cells; assay: Internalization of biotinylated P190 by FACS and confocal microscopy; type: cell-based, human; settings: 37° C.
Experimental: The complexes were added to A431 cells that had been pre-incubated in PBS with or without EGF for 15 minutes and then incubated for an additional hour. Cells were washed to remove unbound complexes and split into two separate tubes, one of which stayed at 4° C. and one of which was incubated for 2 hours at 37° C. to promote internalization. Again, cells were washed and further split into 2 groups with one tube from each temperature undergoing acid wash treatment to remove surface-bound biotinylated peptide. Cells were washed again in FACS staining buffer and peptide binding and internalization were acquired by FACSCalibur (BD, Franklin Lakes, N.J.) and analyzed by Cell Quest software. The remaining cells from both 4° C. and 37° C. without acid wash after FACS analysis were centrifuged and resuspended with 50 μL mounting medium containing DAPI (Vector Laboratory Inc. Burlingame, Calif.). Ten μL of cells in mounting medium were transferred to a glass slide, covered with thin glass slips and examined by confocal microscopy.

DPCTWEVWGRECLQ [P190]
Binds EGF + SEGFR-MMB Complex [1]: increased in the presence of EGF or TGF-a
phage binding to A431 cells in the presence of EGF [2]: increased
phage binding to A431 cells in the presence of EGF and cetuximab [2]: decreases
binding to A431 compared with MCF-7 [3]: bound more effectively to A431 cells
binding to A431 compared with MCF-7 ([3]; listed as pIII-190): bind to A431 but not to MCF-7
binding to A431 compared with MCF-7 ([3]; listed as pIX-190): bind to A431 but not to MCF-7
internalization into EGFR^+ cells [4]: is internalized

— patent publication US8536113B2, “EGFR binding peptides and uses thereof” (Janssen Biotech, Inc., priority 2006, dated 2013)
